Source: patent US10119972B2, “Reactive labelling compounds and uses thereof” (Academia Sinica, priority 2014, dated 2018)
Entries after “also recorded” stand apart in the source; their conditions may differ.

Experiments:
[1] = Absorption and fluorescence spectroscopy under simulated physiological conditions; format: physicochemical; conditions: for Absorption (λmax, nm) / Stokes shift / Emission (λmax, nm) / ε (M^−1cm^−1), extinction coefficient / Φf, fluorescence quantum yield: PBS buffer containing 10% DMSO, pH 7.4; for Emission (λmax, nm): excitation at 330 nm; for ε (M^−1cm^−1), extinction coefficient: measured at 330 nm; for Φf, fluorescence quantum yield: quinine sulfate (Φf = 0.54 ± 0.03) as standard; for increase in quantum yield compared to unreacted 101: triazole product vs 101
Protocol: Formation of triazoles 111 and 112 were accompanied by a significant increase in fluorescence intensity with a large Stokes shift into a standard range for coumarin emission (FIG. 16a).
FIG. 16 describes (a) Absorption and Fluorescence emission spectra (λex=330 nm) of 101 (black), 111 (blue) and 112 (red) (45 μM, PBS buffer containing 10% DMSO, pH 7.4). (b) Time course of normalized fluorescence intensity at 435 nm (λex=330 nm) for the ligation reaction of 101 (30 μM) with N-azidoacetylmannosamine (30 μM) in PBS buffer containing 10% DMSO.

[2] = Stability in presence of 3-mercaptopropionic acid by 1H-NMR; format: physicochemical; conditions: 25 mM in CDCl3 with 3-mercaptopropionic acid (32 mM), 25° C., 24 h
Protocol: A potential problematic side reaction of cyclooctynes is the addition with proteinic or endogenous thiols to the corresponding vinyl sulfides. To test whether potential non-specific stainings of 101 and the corresponding triazole 111 may occur due to additions of the SH groups to the triple bond or double bond by proteinic or endogenous thiols, the experiment was performed by incubation of 101 and 111 with 3-mercaptopropionic acid in CDCl3 (FIGS. 25 and 26).
A solution of compound 101 and compound 111 (25 mM in CDCl3) was incubated with a solution of 3-mercaptopropionic acid (32 mM in CDCl3) at room temperature (25° C.).
FIG. 25 show ^1H-NMR spectrum in CDCl3 of compound 101 and 3-mercaptopropionic acid alone, and ^1H-NMR spectrum of compound 101 was treated with 3-mercaptopropionic acid at 25° C. for 0 h, 2 h and 24 h.

[3] = test system: CL1-5 cells; test: Dual fluorescence labeling in cells (SPAAC with CuAAC), confocal microscopy; format: cell-based; conditions: CL1-5 cells with Ac4ManNAl and Ac4GlcNAz; 100 μM coumOCT, 0.1 μM AzBOCEt
Protocol: A dual-labeling experiment was performed using SPAAC in combination with CuAAC for the concurrent fluorescence labeling of two different metabolically incorporated glycoconjugates. Peracetylated N-acetylmannosamine (Ac4ManNAc) and peracetylated N-acetylglucosamine (Ac4GlcNAc) were employed as the control sugars. ManNAc is converted metabolically to sialic acid that is found as a terminal monosaccharide of glycoproteins and glycolipids in cell, whereas GlcNAz is an internal monosaccharide that abundant in the N- and O-linked glycans produced in the endoplasmic reticulum and Golgi. CL1-5 cells were incubated in the presence of both alkyne-containing sugar (Ac4ManNAl) and azido-containing sugar (Ac4GlcNAz) for three days. The cells were stained by SPAAC with coumOCT (for azido sugars), followed by CuAAC with AzBOCEt^6j (for alkynyl sugars), and investigated by confocal microscopy (FIG. 24).
(A) Illustration of the cell labeling experiments using Ac4ManNAl, Ac4GlcNAz, 101 and AzBOCEt. CL1-5 cells were incubated with 100 μM of Ac4ManNAl and Ac4GlcNAz or control sugars (Ac4ManNAc and Ac4GlcNAc) for 3 days, which were treated with 100 μM of probe 101 for 0.5 h under SPAAC conditions, and then incubated with 0.1 μM of AzBOCEt for 1 h under CuAAC conditions. (B) Dual fluorescence imaging in CL1-5 cells. […]

| Absorption (λmax, nm) [1] [nm] | Stokes shift [1] [cm⁻¹] | Emission (λmax, nm) [1] [nm] | ε (M^−1cm^−1), extinction coefficient [1] [M⁻¹ cm⁻¹] | Φf, fluorescence quantum yield [1] | increase in quantum yield compared to unreacted 101 [1] [fold] | thiol-yne or thiol-ene addition / stability in the presence of thiols [2] | Structure (SMILES) | localization of labeled glycoconjugates [3] |
| --- | --- | --- | --- | --- | --- | --- | --- | --- |
| 328 | 7500 | 435 | 12200 | 0.23 | 20 | inactive; also recorded: high stability | O=c1ccc2cc3c(cc2o1)-c1nnn(Cc2ccccc2)c1CCCC3 [Compound 111, 10-Benzyl-6,7,8,9-tetrahydro-cyclooctatriazolo[5,4-g]chromen-2(2H)-one] | – |
| 330 | 7320 | 435 | 10800 | 0.21 | 20 | – | O=C(Cn1nnc2c1CCCCc1cc3ccc(=O)oc3cc1-2)NC1C(O)OC(CO)[C@@H](O)C1O (stereo partly drawn) [Compound 112, N-[2-(11-Oxo-4,6,7,11-tetrahydrochromeno[7′,6′:3,4]cycloocta[1,2-d][1,2,3]triazol-3(5H)-yl)]acetamido-2-deoxy-α,β-D-mannopyranose] | – |
| – | – | – | – | – | – | – | CCOC(=O)C1=C(C)C2=C(c3cc(N=[N+]=[N-])ccc3OC)c3c(C)c(C(=O)OCC)c(C)n3[B-](F)(F)[N+]2=C1C [Az10, 8-(5-Azido-2-methoxyphenyl)-2,6-diethoxycarbonyl-4,4-difluoro-1,3,5,7-tetramethyl-4-bora-3a,4a-diaza-s-indacene] | observed clearly on the cell surface and partially in the cytosol |
